Measurements: US12077503B2, “Substituted cyclic amides and their use as herbicides” (FMC CORPORATION, priority 2015, dated 2024)

What was measured:
Format in all cases: in vivo
Kochia (Kochia scoparia) [1] = test: Test A preemergence; settings: for Plant response rating, Kochia: 125 g ai/ha; for Kochia plant response rating (0 to 100 scale, 0 is no effect, 100 is complete control): 500 g ai/ha, visual injury approx. 10 d
Procedure, shortened: (§1)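 Preemergence directed soil spray on seeded pots, or postemergence application to plants 2–10 cm, one- to two-leaf. Solvent mixture non-phytotoxic, with surfactant. Scored ~10 d later, visually, 0–100 vs untreated.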

[2] = test system: barnyardgrass (Echinochloa crus-galli); test: Test A preemergence; settings: for Plant response rating, Barnyardgrass: 125 g ai/ha; for Barnyardgrass plant response rating (0 to 100 scale, 0 is no effect, 100 is complete control): 500 g ai/ha, visual injury approx. 10 d
Procedure, shortened: as §1

[3] = test system: giant foxtail (Setaria faberii); test: Test A preemergence; settings: for Plant response rating, Foxtail, Giant: 125 g ai/ha; for Foxtail, Giant plant response rating (0 to 100 scale, 0 is no effect, 100 is complete control): 500 g ai/ha, visual injury approx. 10 d
Procedure, shortened: as §1

[4] = test system: pigweed (Amaranthus retroflexus); test: Test A preemergence; settings: for Plant response rating, Pigweed: 125 g ai/ha; for Pigweed plant response rating (0 to 100 scale, 0 is no effect, 100 is complete control): 500 g ai/ha, visual injury approx. 10 d
[5] = test system: ragweed (common ragweed, Ambrosia elatior); test: Test A preemergence; settings: for Plant response rating, Ragweed: 125 g ai/ha; for Ragweed plant response rating (0 to 100 scale, 0 is no effect, 100 is complete control): 500 g ai/ha, visual injury approx. 10 d
Procedure, shortened: as §1

[6] = test system: ryegrass, Italian (Italian ryegrass, Lolium multiflorum); test: Test A preemergence; settings: for Plant response rating, Ryegrass, Italian: 125 g ai/ha; for Ryegrass, Italian plant response rating (0 to 100 scale, 0 is no effect, 100 is complete control): 500 g ai/ha, visual injury approx. 10 d
Procedure, shortened: as §1

[7] = test system: Galium (catchweed bedstraw, Galium aparine); test: Test A postemergence; settings: for Galium plant response rating: visual injury rating on 0 to 100 scale (0 no effect, 100 complete control), approx. 10 d
Procedure, shortened: as §1

Kochia (Kochia scoparia) [8] = test: Test A postemergence; settings: for Kochia plant response rating: visual injury rating on 0 to 100 scale (0 no effect, 100 complete control), approx. 10 d
Procedure, shortened: as §1

[9] = test system: barnyardgrass (Echinochloa crus-galli); test: Test A postemergence; settings: for Barnyardgrass plant response rating: visual injury rating on 0 to 100 scale (0 no effect, 100 complete control), approx. 10 d
Procedure, shortened: as §1

[10] = test system: blackgrass (Alopecurus myosuroides); test: Test A postemergence; settings: for Blackgrass plant response rating: visual injury rating on 0 to 100 scale (0 no effect, 100 complete control), approx. 10 d
Procedure, shortened: as §1

corn (Zea mays) = test: Test A postemergence; settings: for Corn plant response rating: visual injury rating on 0 to 100 scale (0 no effect, 100 complete control), approx. 10 d
Procedure, shortened: as §1

[11] = test system: giant foxtail (Setaria faberii); test: Test A postemergence; settings: for Foxtail, Giant plant response rating: visual injury rating on 0 to 100 scale (0 no effect, 100 complete control), approx. 10 d
Procedure, shortened: as §1

[12] = test system: pigweed (Amaranthus retroflexus); test: Test A postemergence; settings: for Pigweed plant response rating: visual injury rating on 0 to 100 scale (0 no effect, 100 complete control), approx. 10 d
Procedure, shortened: as §1

[13] = test system: ragweed (common ragweed, Ambrosia elatior); test: Test A postemergence; settings: for Ragweed plant response rating: visual injury rating on 0 to 100 scale (0 no effect, 100 complete control), approx. 10 d
Procedure, shortened: as §1

[14] = test system: ryegrass, Italian (Italian ryegrass, Lolium multiflorum); test: Test A postemergence; settings: for Ryegrass, Italian plant response rating: visual injury rating on 0 to 100 scale (0 no effect, 100 complete control), approx. 10 d
Procedure, shortened: as §1

[15] = test system: wheat (Triticum aestivum); test: Test A postemergence; settings: for Wheat plant response rating: visual injury rating on 0 to 100 scale (0 no effect, 100 complete control), approx. 10 d
Procedure, shortened: as §1

[16] = test system: barnyardgrass (Echinochloa crus-galli); test: Test B flooded paddy test; settings: Flood, 250 g ai/ha; 0 to 100 scale where 0 is no effect and 100 is complete control; 13 to 15 d
Procedure, shortened: (§2)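 Greenhouse paddy pots with 2-leaf stage plants received compound by direct addition to floodwater 3 cm deep, kept at that level. Scored visually at 13–15 d versus controls (0 no effect; 100 complete control).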

[17] = test system: ducksalad (Heteranthera limosa); test: Test B flooded paddy test; settings: Flood, 250 g ai/ha; 0 to 100 scale where 0 is no effect and 100 is complete control; 13 to 15 d
Procedure, shortened: as §2

rice (Oryra sativa) = test: Test B flooded paddy test; settings: Flood, 250 g ai/ha; 0 to 100 scale where 0 is no effect and 100 is complete control; 13 to 15 d
Procedure, shortened: as §2

[18] = test system: sedge, umbrella (small-flower umbrella sedge, Cyperus difformis); test: Test B flooded paddy test; settings: Flood, 250 g ai/ha; 0 to 100 scale where 0 is no effect and 100 is complete control; 13 to 15 d
Procedure, shortened: as §2

[19] = Preemergence, visual injury after approximately 10 d, 0 to 100 scale where 0 is no effect and 100 is complete control
[20] = 125 g ai/ha, postemergence, visual rating after approx. 10 d, 0 to 100 scale (0 no effect, 100 complete control)
[21] = Postemergence, 500 g ai/ha, 0 to 100 scale where 0 is no effect and 100 is complete control
[22] = preemergence, 0 to 100 scale (0 no effect, 100 complete control)
[23] = 500 g ai/ha, postemergence, 0 to 100 scale, 0 no effect, 100 complete control

O=C1NCC(c2ccsc2Cl)C1C(=O)Nc1ccccc1F (stereo not drawn) [Compound 599]
Plant response rating, Kochia (Kochia (Kochia scoparia) [1]; [19]): 0 | Kochia plant response rating (0 to 100 scale, 0 is no effect, 100 is complete control) (Kochia (Kochia scoparia) [1]; Preemergence): 0 | Plant response rating, Barnyardgrass [2, 19]: 0 | Barnyardgrass plant response rating (0 to 100 scale, 0 is no effect, 100 is complete control) ([2]; Preemergence): 30 | Plant response rating, Foxtail, Giant [3, 19]: 0 | Foxtail, Giant plant response rating (0 to 100 scale, 0 is no effect, 100 is complete control) ([3]; Preemergence): 0 | Plant response rating, Pigweed [4, 19]: 0 | Pigweed plant response rating (0 to 100 scale, 0 is no effect, 100 is complete control) ([4]; Preemergence): 0 | Plant response rating, Ragweed [5, 19]: 0 | Ragweed plant response rating (0 to 100 scale, 0 is no effect, 100 is complete control) ([5]; Preemergence): 0 | Plant response rating, Ryegrass, Italian [6, 19]: 0 | Ryegrass, Italian plant response rating (0 to 100 scale, 0 is no effect, 100 is complete control) ([6]; Preemergence): 0 | Plant response rating, Galium [7, 20]: 0 | Plant response rating, Galium [7, 21]: 0 | Plant response rating, Kochia (Kochia (Kochia scoparia) [8]; [20]): 0 | Plant response rating, Kochia (Kochia (Kochia scoparia) [8]; [21]): 0 | Plant response rating, Barnyardgrass [9, 20]: 0 | Plant response rating, Barnyardgrass [9, 21]: 20 | Plant response rating, Blackgrass [10, 20]: 0 | Plant response rating, Blackgrass [10, 21]: 0 | Plant response rating, Corn (corn (Zea mays); [20]): 0 | Plant response rating, Corn (corn (Zea mays); [21]): 0 | Plant response rating, Foxtail, Giant [11, 20]: 0 | Plant response rating, Foxtail, Giant [11, 21]: 0 | Plant response rating, Pigweed [12, 20]: 0 | Plant response rating, Pigweed [12, 21]: 0 | Plant response rating, Ragweed [13, 20]: 0 | Plant response rating, Ragweed [13, 21]: 0 | Plant response rating, Ryegrass, Italian [14, 20]: 0 | Plant response rating, Ryegrass, Italian [14, 21]: 0 | Plant response rating, Wheat [15, 20]: 0 | Plant response rating, Wheat [15, 21]: 0 | Plant response rating, Barnyardgrass [16]: 0 | Plant response rating, Ducksalad [17]: 50 | Plant response rating, Rice (rice (Oryra sativa)): 0 | Plant response rating, Sedge, Umbrella [18]: 0

CN1CC(c2ccc(F)cc2)C(C(=O)Nc2cccc(F)c2F)C1=O (stereo not drawn) [Compound 438]
Plant response rating, Kochia (Kochia (Kochia scoparia) [1]; [22]): 70 | Kochia plant response rating (0 to 100 scale, 0 is no effect, 100 is complete control) (Kochia (Kochia scoparia) [1]; Preemergence): 80 | Plant response rating, Barnyardgrass [2, 22]: 90 | Barnyardgrass plant response rating (0 to 100 scale, 0 is no effect, 100 is complete control) ([2]; Preemergence): 100 | Plant response rating, Foxtail, Giant [3, 22]: 100 | Foxtail, Giant plant response rating (0 to 100 scale, 0 is no effect, 100 is complete control) ([3]; Preemergence): 100 | Plant response rating, Pigweed [4, 22]: 80 | Pigweed plant response rating (0 to 100 scale, 0 is no effect, 100 is complete control) ([4]; Preemergence): 90 | Plant response rating, Ragweed [5, 22]: 60 | Ragweed plant response rating (0 to 100 scale, 0 is no effect, 100 is complete control) ([5]; Preemergence): 90 | Plant response rating, Ryegrass, Italian [6, 22]: 50 | Ryegrass, Italian plant response rating (0 to 100 scale, 0 is no effect, 100 is complete control) ([6]; Preemergence): 70 | Galium plant response rating ([7]; 125 g ai/ha, postemergence): 40 | Plant response rating, Galium [7, 23]: 50 | Kochia plant response rating (Kochia (Kochia scoparia) [8]; 125 g ai/ha, postemergence): 70 | Plant response rating, Kochia (Kochia (Kochia scoparia) [8]; [23]): 70 | Barnyardgrass plant response rating ([9]; 125 g ai/ha, postemergence): 90 | Plant response rating, Barnyardgrass [9, 23]: 90 | Blackgrass plant response rating ([10]; 125 g ai/ha, postemergence): 40 | Plant response rating, Blackgrass [10, 23]: 70 | Corn plant response rating (corn (Zea mays); 125 g ai/ha, postemergence): 0 | Plant response rating, Corn (corn (Zea mays); [23]): 50 | Foxtail, Giant plant response rating ([11]; 125 g ai/ha, postemergence): 90 | Plant response rating, Foxtail, Giant [11, 23]: 90 | Pigweed plant response rating ([12]; 125 g ai/ha, postemergence): 0 | Plant response rating, Pigweed [12, 23]: 60 | Ragweed plant response rating ([13]; 125 g ai/ha, postemergence): 0 | Plant response rating, Ragweed [13, 23]: 30 | Ryegrass, Italian plant response rating ([14]; 125 g ai/ha, postemergence): 40 | Plant response rating, Ryegrass, Italian [14, 23]: 60 | Wheat plant response rating ([15]; 125 g ai/ha, postemergence): 30 | Plant response rating, Wheat [15, 23]: 70 | Plant response rating, Barnyardgrass [16]: 85 | Plant response rating, Ducksalad [17]: 100 | Plant response rating, Rice (rice (Oryra sativa)): 20 | Plant response rating, Sedge, Umbrella [18]: 0

C=C(Cl)CN1CC(c2cccc(C(F)(F)F)c2)C(C(=O)Nc2cccc(F)c2F)C1=O (stereo not drawn) [Compound 480]
Plant response rating, Kochia (Kochia (Kochia scoparia) [1]; [22]): 0 | Kochia plant response rating (0 to 100 scale, 0 is no effect, 100 is complete control) (Kochia (Kochia scoparia) [1]; Preemergence): 0 | Plant response rating, Barnyardgrass [2, 22]: 0 | Barnyardgrass plant response rating (0 to 100 scale, 0 is no effect, 100 is complete control) ([2]; Preemergence): 0 | Plant response rating, Foxtail, Giant [3, 22]: 70 | Foxtail, Giant plant response rating (0 to 100 scale, 0 is no effect, 100 is complete control) ([3]; Preemergence): 90 | Plant response rating, Pigweed [4, 19]: 0 | Pigweed plant response rating (0 to 100 scale, 0 is no effect, 100 is complete control) ([4]; Preemergence): 0 | Plant response rating, Ragweed [5, 19]: 0 | Ragweed plant response rating (0 to 100 scale, 0 is no effect, 100 is complete control) ([5]; Preemergence): 0 | Plant response rating, Ryegrass, Italian [6, 19]: 0 | Ryegrass, Italian plant response rating (0 to 100 scale, 0 is no effect, 100 is complete control) ([6]; Preemergence): 0 | Galium plant response rating ([7]; 125 g ai/ha, postemergence): 0 | Plant response rating, Galium [7, 21]: 0 | Kochia plant response rating (Kochia (Kochia scoparia) [8]; 125 g ai/ha, postemergence): 0 | Plant response rating, Kochia (Kochia (Kochia scoparia) [8]; [21]): 0 | Barnyardgrass plant response rating ([9]; 125 g ai/ha, postemergence): 0 | Plant response rating, Barnyardgrass [9, 23]: 30 | Blackgrass plant response rating ([10]; 125 g ai/ha, postemergence): 0 | Plant response rating, Blackgrass [10, 23]: 0 | Corn plant response rating (corn (Zea mays); 125 g ai/ha, postemergence): 0 | Plant response rating, Corn (corn (Zea mays); [23]): 0 | Foxtail, Giant plant response rating ([11]; 125 g ai/ha, postemergence): 20 | Plant response rating, Foxtail, Giant [11, 21]: 50 | Pigweed plant response rating ([12]; 125 g ai/ha, postemergence): 0 | Plant response rating, Pigweed [12, 21]: 0 | Ragweed plant response rating ([13]; 125 g ai/ha, postemergence): 0 | Plant response rating, Ragweed [13, 21]: 0 | Ryegrass, Italian plant response rating ([14]; 125 g ai/ha, postemergence): 0 | Plant response rating, Ryegrass, Italian [14, 21]: 0 | Wheat plant response rating ([15]; 125 g ai/ha, postemergence): 0 | Plant response rating, Wheat [15, 21]: 30 | Plant response rating, Barnyardgrass [16]: 0 | Plant response rating, Ducksalad [17]: 0 | Plant response rating, Rice (rice (Oryra sativa)): 0 | Plant response rating, Sedge, Umbrella [18]: 0
